In patent publication US8637268B2, “Determination of von Willebrand Factor cleavage by ADAMTS13” (Puget Sound Blood Center, priority 2010, dated 2014):
Each block holds one compound with its values, some of them ahead of it.

What was measured:
Format in all cases: biochemical
[1] = biological target: T1, VWF (Homo sapiens, UniProt P04275); test: Cleavage of VWF by endogenous ADAMTS13 in citrated pooled normal plasma, multimer pattern on agarose gel
T1 construct: Cleavage of VWF by ADAMTS13 in citrated pooled normal plasma; tissue Precision BioLogic; host or cells: citrated pooled normal plasma, diluted 10-fold
T1 sequence (P04275 764-2813 limits assumed): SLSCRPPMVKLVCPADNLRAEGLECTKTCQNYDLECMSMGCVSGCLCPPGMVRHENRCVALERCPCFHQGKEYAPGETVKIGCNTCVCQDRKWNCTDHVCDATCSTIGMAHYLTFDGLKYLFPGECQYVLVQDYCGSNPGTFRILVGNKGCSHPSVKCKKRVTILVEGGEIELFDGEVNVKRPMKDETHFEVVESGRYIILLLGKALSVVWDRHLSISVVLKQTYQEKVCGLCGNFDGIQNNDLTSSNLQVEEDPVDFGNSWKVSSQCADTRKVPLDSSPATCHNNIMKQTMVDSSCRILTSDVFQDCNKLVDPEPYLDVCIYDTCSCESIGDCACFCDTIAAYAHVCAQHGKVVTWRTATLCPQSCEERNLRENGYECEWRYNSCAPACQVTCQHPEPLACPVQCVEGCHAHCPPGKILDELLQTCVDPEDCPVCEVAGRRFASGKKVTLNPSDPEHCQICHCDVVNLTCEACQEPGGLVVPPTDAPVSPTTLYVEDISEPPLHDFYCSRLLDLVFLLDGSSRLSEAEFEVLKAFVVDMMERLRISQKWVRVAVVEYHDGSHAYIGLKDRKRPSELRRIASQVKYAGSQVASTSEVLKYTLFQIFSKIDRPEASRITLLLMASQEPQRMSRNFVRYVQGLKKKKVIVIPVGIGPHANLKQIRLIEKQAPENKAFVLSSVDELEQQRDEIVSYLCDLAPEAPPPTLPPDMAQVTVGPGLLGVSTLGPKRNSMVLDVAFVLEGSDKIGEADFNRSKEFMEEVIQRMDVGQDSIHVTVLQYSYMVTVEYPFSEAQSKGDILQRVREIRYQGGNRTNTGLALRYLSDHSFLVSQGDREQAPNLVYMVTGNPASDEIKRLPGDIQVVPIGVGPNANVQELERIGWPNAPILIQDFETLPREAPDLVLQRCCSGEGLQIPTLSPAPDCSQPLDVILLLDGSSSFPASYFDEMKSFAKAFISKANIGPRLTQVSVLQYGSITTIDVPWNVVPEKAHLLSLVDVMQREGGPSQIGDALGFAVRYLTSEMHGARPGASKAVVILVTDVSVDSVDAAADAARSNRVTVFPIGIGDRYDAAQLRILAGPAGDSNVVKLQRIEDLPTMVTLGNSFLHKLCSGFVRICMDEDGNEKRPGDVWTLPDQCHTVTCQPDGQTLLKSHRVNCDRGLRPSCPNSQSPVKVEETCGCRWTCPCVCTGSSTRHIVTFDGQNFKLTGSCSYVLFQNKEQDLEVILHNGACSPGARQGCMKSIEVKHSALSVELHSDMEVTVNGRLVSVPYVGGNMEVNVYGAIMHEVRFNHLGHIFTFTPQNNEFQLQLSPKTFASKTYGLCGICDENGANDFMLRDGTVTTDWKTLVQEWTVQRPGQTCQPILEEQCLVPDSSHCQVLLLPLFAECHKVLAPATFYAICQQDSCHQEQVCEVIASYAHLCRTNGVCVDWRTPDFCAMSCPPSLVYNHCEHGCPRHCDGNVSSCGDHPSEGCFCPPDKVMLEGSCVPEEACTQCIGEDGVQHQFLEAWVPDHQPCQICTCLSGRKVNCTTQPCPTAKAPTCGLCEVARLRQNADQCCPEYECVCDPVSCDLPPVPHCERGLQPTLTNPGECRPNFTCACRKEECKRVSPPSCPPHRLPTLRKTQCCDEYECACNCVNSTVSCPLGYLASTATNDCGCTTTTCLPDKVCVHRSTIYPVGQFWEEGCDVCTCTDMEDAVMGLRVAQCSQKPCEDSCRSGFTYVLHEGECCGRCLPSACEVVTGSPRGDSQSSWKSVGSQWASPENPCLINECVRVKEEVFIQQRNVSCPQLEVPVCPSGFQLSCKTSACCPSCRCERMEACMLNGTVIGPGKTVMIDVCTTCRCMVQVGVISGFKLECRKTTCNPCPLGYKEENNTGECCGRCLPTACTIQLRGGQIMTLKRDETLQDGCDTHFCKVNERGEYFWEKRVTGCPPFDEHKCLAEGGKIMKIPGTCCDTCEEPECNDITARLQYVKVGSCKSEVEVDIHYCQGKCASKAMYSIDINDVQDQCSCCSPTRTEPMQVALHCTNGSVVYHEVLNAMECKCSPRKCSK
Description: Cleavage of VWF by ADAMTS13 in citrated pooled normal plasma was examined by incubating 10-fold diluted plasma at 37° C. for various times. Monoclonal ADAMTS13 antibody or control antibody (final concentration: 20 μg/ml) was added to an aliquot of the diluted plasma. ADAMTS13 cleavage was stopped at indicated times with EDTA.
(§1) The VWF multimer pattern was evaluated by 1.5% agarose gel electrophoresis followed by Western blotting with a HRP-conjugated polyclonal VWF antibody (Dako, Inc., Carpinteria, Calif.) previously described (Chen et al., J Clin Invest, Submitted (2010)).

[2] = biological target: T2, short A2 (Met1473-Gly1674) (Homo sapiens, UniProt P04275); test: ADAMTS13 cleavage of recombinant VWF fragment short A2 (SDS-PAGE, western blotting); conditions: 1.5 M urea or 1.5 mg/ml ristocetin, 37° C., 5 hr (FIG. 4)
T2 construct: short A2 (Met1473-Gly1674); made in house; host or cells: HEK293 Tet-On cells
T2 sequence (P04275 1473-1674): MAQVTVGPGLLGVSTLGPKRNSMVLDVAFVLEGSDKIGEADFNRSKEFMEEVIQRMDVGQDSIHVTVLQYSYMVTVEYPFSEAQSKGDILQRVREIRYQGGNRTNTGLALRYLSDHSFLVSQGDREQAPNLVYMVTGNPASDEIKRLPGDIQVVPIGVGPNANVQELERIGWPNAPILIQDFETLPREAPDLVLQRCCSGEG
Source text: (§2) Recombinant ADAMTS13 (Ala75-Thr1427) and VWF fragments A1A2A3 (Asp1261-Ile1878), long A2 (Asp1459-Gly1674), and short A2 (Met1473-Gly1674) were expressed as fusion proteins with the pNBioSec vector (Mize et al., Protein Expr Purif, 57(2):280-289 (2008)) in HEK293 Tet-On cells as previously described (Chen et al., Blood, 115(3):706-712 (2010)). In this expression system, recombinant proteins were secreted with dual tags: an N-terminal biotin-tag and a C-terminal protein C epitope tag. Serum-free-cell-culture medium containing the secreted recombinant proteins was concentrated 10-fold by centrifugation over an Ultra-10K filter and desalted over Sephadex G25.
(§3) Plasma VWF was purified from cryoprecipitate as described previously (Chen et al., Blood, 115(3):706-712 (2010)). Cleavage of recombinant VWF fragments by ADAMTS13 was carried out at 37° C. for 5 hours with or without modulators. The reactions were stopped by EDTA (final concentration 10 mM). Cleavage products were analyzed by electrophoresis in 4-15% gradient polyacrylamide gels (Bio-Rad Laboratories, Hercules, Calif.) after reduction. […]
(§4) Cleavage of recombinant VWF fragments (1 μg/ml) by ADAMTS13 (0.15 μg/ml) was carried out at 37° C. for 5 hours in the presence of either 1.5 M urea, or 1.5 mg/ml ristocetin. […] Cleavage products were analyzed by electrophoresis in 4-15% gradient polyacrylamide gels after reduction. […]

[3] = biological target: T3, A1A2A3 (Asp1261-Ile1878) (Homo sapiens, UniProt P04275); test: ADAMTS13 cleavage of recombinant VWF fragment A1A2A3 (SDS-PAGE, western blotting); conditions: for ADAMTS13 cleavage of A1A2A3: 37° C., 5 hr (FIG. 2)
T3 construct: VWF fragments A1A2A3 (Asp1261-Ile1878); made in house; host or cells: HEK293 Tet-On cells
T3 sequence (P04275 1261-1878, one chain of several): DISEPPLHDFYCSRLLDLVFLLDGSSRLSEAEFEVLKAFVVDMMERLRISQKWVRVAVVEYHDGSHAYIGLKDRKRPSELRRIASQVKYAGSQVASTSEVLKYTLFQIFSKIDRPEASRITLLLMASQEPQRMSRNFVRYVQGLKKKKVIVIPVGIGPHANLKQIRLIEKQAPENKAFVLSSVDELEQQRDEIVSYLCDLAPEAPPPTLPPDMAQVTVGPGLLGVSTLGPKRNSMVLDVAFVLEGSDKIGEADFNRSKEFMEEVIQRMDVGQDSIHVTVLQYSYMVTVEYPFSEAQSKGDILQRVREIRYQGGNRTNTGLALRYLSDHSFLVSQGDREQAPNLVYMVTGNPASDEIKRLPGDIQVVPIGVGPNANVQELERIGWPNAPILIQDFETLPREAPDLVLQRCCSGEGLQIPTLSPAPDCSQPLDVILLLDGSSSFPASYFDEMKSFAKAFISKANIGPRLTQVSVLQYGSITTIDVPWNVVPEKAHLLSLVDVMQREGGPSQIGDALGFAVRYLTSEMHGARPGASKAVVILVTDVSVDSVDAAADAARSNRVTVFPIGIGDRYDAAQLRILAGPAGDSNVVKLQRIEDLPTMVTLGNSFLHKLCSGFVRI
Source text: as §2
(§5) Plasma VWF was purified from cryoprecipitate as described previously (Chen et al., Blood, 115(3):706-712 (2010)). Cleavage of recombinant VWF fragments by ADAMTS13 was carried out at 37° C. for 5 hours with or without modulators. The reactions were stopped by EDTA (final concentration 10 mM). Cleavage products were analyzed by electrophoresis in 4-15% gradient polyacrylamide gels (Bio-Rad Laboratories, Hercules, Calif.) after reduction. Cleavage products were transferred onto nitrocellulose membranes, blocked with 1% albumin in Tris-buffered saline with 0.05% Tween-20, probed with HRP-conjugated streptavidin (Thermal Scientific, Rockford, Ill.), and visualized with the Immobilon Western HRP substrate (Millipore).
(§6) Cleavage of recombinant VWF fragments (1 μg/ml) by ADAMTS13 (0.15 μg/ml) was carried out at 37° C. for 5 hours in the presence of either 1.5 M urea, or 1.5 mg/ml ristocetin. The reactions were stopped by EDTA. Cleavage products were analyzed by electrophoresis in 4-15% gradient polyacrylamide gels after reduction. Cleavage products were transferred onto nitrocellulose membranes, blocked with 1% albumin in Tris-buffered saline with 0.05% Tween-20, probed with HRP-conjugated streptavidin, and visualized with the Immobilon Western HRP substrate.

[4] = biological target: T4, long A2 (Asp1459-Gly1674) (Homo sapiens, UniProt P04275, D1472H); test: ADAMTS13 cleavage of recombinant VWF fragment long A2 (SDS-PAGE, western blotting); conditions: in the presence of ristocetin, 37° C., 5 hr (FIG. 3)
T4 construct: long A2 (Asp1459-Gly1674); made in house; host or cells: HEK293 Tet-On cells
T4 sequence (P04275 1459-1674 D1472H): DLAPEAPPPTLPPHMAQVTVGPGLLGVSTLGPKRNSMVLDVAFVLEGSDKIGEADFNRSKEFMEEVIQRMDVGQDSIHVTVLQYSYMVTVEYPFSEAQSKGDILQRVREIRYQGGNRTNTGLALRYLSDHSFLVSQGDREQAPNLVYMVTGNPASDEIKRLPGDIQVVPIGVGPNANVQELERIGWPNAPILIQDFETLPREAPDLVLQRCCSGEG
Source text: as §2, §3, §4

[5] = biological target: T5, purified multimeric plasma VWF (Homo sapiens, UniProt P04275); test: ADAMTS13 cleavage of purified multimeric plasma VWF, multimer pattern on agarose gel; conditions: 0.75 and 1.0 mg/ml ristocetin, 37° C., under stasis (FIG. 1A)
T5 construct: Plasma VWF was purified from cryoprecipitate as described previously; from tissue; host or cells: plasma cryoprecipitate (VWF); HEK293 Tet-On cells (ADAMTS13)
T5 sequence (P04275 764-2813 limits assumed): as the sequence (P04275 764-2813 limits assumed) above
Description: Cleavage of purified VWF (2 μg/ml) by recombinant ADAMTS13 (0.4 μg/ml) was performed at 37° C. in the absence or presence of urea or ristocetin. The reactions were stopped at the indicated times with EDTA (final concentration 10 mM).
as §1

[6] = biological target: T6, Multimeric VWF (Homo sapiens, UniProt P04275); test: Detection of methionine oxidation in VWF by mass spectrometry (HOCl-generating system MPO plus H2O2)
T6 construct: purified, multimeric VWF from plasma; from tissue
T6 sequence (P04275 764-2813 limits assumed): as above
Description: Multimeric VWF was incubated with an HOC1-generating system containing 25 nM MPO plus H2O2 at various concentrations in PBS (pH 7.4) at 37° C. for 1 hr in the presence or absence of 1.0 mg/ml ristocetin. The oxidation reaction was stopped by the addition of excess free methionine. The oxidized protein was digested with trypsin and the peptides analyzed by nano liquid chromatography-electrospray ionization-tandem mass spectrometry (nanoLC-ESI-MS/MS).

[7] = test system: A1A2 fragment; test: ADAMTS13 cleavage of recombinant VWF fragment A1A2 (SDS-PAGE, western blotting)
Chain of A1A2 fragment (P04275 1261-1674 D1472H limits assumed): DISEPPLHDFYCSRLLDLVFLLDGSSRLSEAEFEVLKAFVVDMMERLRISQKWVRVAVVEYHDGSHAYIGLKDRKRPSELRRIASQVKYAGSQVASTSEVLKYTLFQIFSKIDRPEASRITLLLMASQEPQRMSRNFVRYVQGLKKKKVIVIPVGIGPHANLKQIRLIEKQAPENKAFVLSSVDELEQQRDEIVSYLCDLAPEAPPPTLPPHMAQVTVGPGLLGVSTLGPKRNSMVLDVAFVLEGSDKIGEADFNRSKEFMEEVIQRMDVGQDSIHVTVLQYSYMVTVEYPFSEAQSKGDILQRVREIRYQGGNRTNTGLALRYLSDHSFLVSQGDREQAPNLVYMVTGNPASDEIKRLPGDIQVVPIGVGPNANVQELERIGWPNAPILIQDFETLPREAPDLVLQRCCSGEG
Description: as §5, §6

[8] = 1.0 mg/ml ristocetin versus buffer, 25 nM MPO plus H2O2, 1 hr (FIG. 6A)

effect on proteolysis of VWF ([1]; antibody 20 μg/ml, EDTA 10 mM per methods): inhibited
Compound: O=C(O)CN(CCN(CC(=O)O)CC(=O)O)CC(=O)O [EDTA]

ADAMTS13 cleavage of short A2 (lacking Asp1459-His1472) [2]: cleaved it normally
Compound: NC(N)=O [urea]

Compound: CN[C@H](CC(C)C)C(=O)N[C@H]1C(=O)N[C@@H](CC(N)=O)C(=O)N[C@H]2C(=O)N[C@H]3C(=O)N[C@H](C(=O)N[C@H](C(=O)O)c4cc(O)cc(O)c4-c4cc3ccc4O)[C@H](O)c3ccc(c(Cl)c3)Oc3cc2cc(c3O[C@@H]2O[C@H](CO)[C@@H](O)[C@H](O)[C@H]2O[C@H]2C[C@](C)(N)[C@H](O)[C@H](C)O2)Oc2ccc(cc2Cl)[C@H]1O [vancomycin]
ADAMTS13 cleavage of A1A2A3 [3]: not mimicked

ADAMTS13 cleavage of short A2 (lacking Asp1459-His1472) [2]: unable to cleave
ADAMTS13 cleavage of long A2 fragment [4]: able to cleave
effect on ability of recombinant ADAMTS13 to cleave purified multimeric plasma VWF [5]: accelerated
oxidation of Met1521 (methionine sulfoxide) in the A2 domain [6, 8]: more oxidized
oxidation of Met1606 (methionine sulfoxide) in the A2 domain [6, 8]: more oxidized
extent of methionine oxidation in the A1 domain ([6]; ristocetin versus buffer, 25 nM MPO and 50 μM H2O2 (FIG. 6B)): much less than in the A2 domain
ADAMTS13 cleavage of A1A2A3 [3]: induced ADAMTS13 to cleave
minimum ristocetin concentration producing maximum proteolysis ([3]; A1A2A3, 37° C., 5 hr, increasing concentrations (FIG. 2B)): approximately 0.8 mg/ml
effect on ability of endogenous ADAMTS13 to cleave VWF in diluted plasma ([1]; 1.0 mg/ml ristocetin, 10-fold diluted plasma, 37° C., compared with 1.5 M urea (FIG. 1B)): enhanced
Compound: ristocetin
efficiency of enhancing ADAMTS13 cleavage, A1A2 fragment versus long A2 domain ([7]; FIG. 3): more efficiently in the A1A2 fragment
ADAMTS13 cleavage of A1A2 fragment ([7]; in the presence of ristocetin, 37° C., 5 hr (FIG. 3)): able to cleave
